The record followed here is patent US12012407B1, “Pyrazolo[1,5-a]pyrido[4,3-e]pyrimidine-3-carboxylic acids as CK2 inhibitors” (KING FAISAL UNIVERSITY, priority 2024, dated 2024).

One assay concerns A375 (melanoma). The assay is described as follows: In vitro cytotoxic activity (MTT) assay, A375. It counts as cell-based. Conditions: Homo sapiens, A-375; A375 (melanoma) cells, exposed for 96 hours; read-out: Cytotoxicity activity IC50 (50% inhibition of cell proliferation). As to the method: (§1) Compounds 1-16 were screened for their in vitro cytotoxic activity utilizing a 3-(4,5-dimethyl-thiazol-2-yl)-2,5-diphenyltetrazolium bromide (MTT) assay against selected cancer human cell lines consisting of PC3 (prostate), HCT116 (colon), A375 (melanoma), H1299 (lung), MIAPaCa-2 (pancreas), HL60 (leukemia), MCF7 (breast), MDA-MB-231 (breast) (T. Mosmann, J. Immunol. Meth., 1983, 65, 55-63). The cells were cultured at 37° C. in RMPI1640 medium supplemented with 10% fetal bovine serum, 50 IU/mL penicillin, and 50 μg/mL streptomycin in a 5% CO2 incubator. All cells were sub-cultured 3 times/week by trypsinisation. Viable cells were seeded and allowed to adhere for 12 hours before a test drug was added in 96-well plates at an initial density of 1.0×10^5 cells/mL. Tumor cell lines were separately exposed to various concentrations of the tested compounds followed by incubation at a temperature of 37° C. during 96 hours inside a medium of fresh RMPI 1640. Cells were subsequently incubated at 37° C. using MTT at 0.5 mg/mL during 4 hours. After removal of supernatant, formazan crystals were dissolved in isopropanol and the optical density was measured at 570 nm. CX-4945 was used as a positive control.

Another assay deals with HCT116 (colon). The assay is described as follows: In vitro cytotoxic activity (MTT) assay, HCT116. It counts as cell-based. The conditions noted are these: Homo sapiens, HCT-116; HCT116 (colon) cells, exposed for 96 hours; read-out: Cytotoxicity activity IC50 (50% inhibition of cell proliferation). How it is done:
as §1

Another assay relates to MDA-MB-231 (breast). Nature of the assay: In vitro cytotoxic activity (MTT) assay, MDA-MB-231. Conditions: Homo sapiens; MDA-MB-231 (breast) cells, exposed for 96 hours; read-out: Cytotoxicity activity IC50 (50% inhibition of cell proliferation). The class given is cell-based. As to the method: as §1
Assay [1] deals with T1, recombinant human CK2 (RRBB-holoenzyme) (Homo sapiens, UniProt P68400).
T1 construct: purchased Millipore
Nature of the assay: CK2 Kinase Assay (33P-ATP, filter plate). The class given is biochemical. The conditions noted are these: final ATP concentration 15 μM, 10 min at 30° C., eight concentrations; read-out: protein kinase CK2 inhibition IC50. As to the method:
CK2 Kinase Assay was conducted using the protocol as described in Pierre F. et al; J. Med. Chem. 2011, 54, 635-654. The tested compounds in aqueous solution were added at a volume of 10 μL to a reaction mixture comprising 10 μL of assay dilution buffer (ADB; 20 mM MOPS, pH 7.2, 25 mM β-glycerol phosphate, 5 mM EGTA, 1 mM sodium orthovanadate, and 1 mM dithiothreitol), 10 μL of substrate peptide (RRRDDDSDDD, dissolved in ADB at a concentration of 1 mM), 10 μL of recombinant human CK2 (RRBB-holoenzyme, 25 ng dissolved in ADB; Millipore). Reactions were initiated by the addition of 10 μL of ATP solution (90% 75 mMMgCl2, 75 μM ATP (final ATP concentration: 15 μM) dissolved in ADB; 10% [Y-33P] ATP (stock 1 mCi/100 μL; 3000 Ci/mmol (Perkin-Elmer) and maintained for 10 min at 30° C. The reactions were quenched with 100 μL of 0.75% phosphoric acid and then transferred to and filtered through a phosphor cellulose filter plate (Millipore). After washing each well five times with 0.75% phosphoric acid, the plate was dried under vacuum for 5 min and, following the addition of 15 μL of scintillation fluid to each well, the residual radioactivity was measured using a Wallac luminescence counter. The IC50 values were derived from eight concentrations of test inhibitors.

A further assay deals with PC3 (prostate). The assay is described as follows: In vitro cytotoxic activity (MTT) assay, PC3. It counts as cell-based. Conditions: Homo sapiens, Prostate cell; PC3 (prostate) cells, exposed for 96 hours; read-out: Cytotoxicity activity IC50 (50% inhibition of cell proliferation). How it is done:
as §1

In another assay the test system is MCF7 (breast). The assay is described as follows: In vitro cytotoxic activity (MTT) assay, MCF7. The class given is cell-based. Conditions: Homo sapiens; MCF7 (breast) cells, exposed for 96 hours; read-out: Cytotoxicity activity IC50 (50% inhibition of cell proliferation). As to the method:
as §1

The test system of a further assay is HL60 (leukemia). Nature of the assay: In vitro cytotoxic activity (MTT) assay, HL60. Conditions: Homo sapiens, HL-60; HL60 (leukemia) cells, exposed for 96 hours; read-out: Cytotoxicity activity IC50 (50% inhibition of cell proliferation). It counts as cell-based. As to the method:
as §1

The subject of another assay is H1299 (lung). The assay is described as follows: In vitro cytotoxic activity (MTT) assay, H1299. The class given is cell-based. The conditions noted are these: Homo sapiens, NCI-H1299; H1299 (lung) cells, exposed for 96 hours; read-out: Cytotoxicity activity IC50 (50% inhibition of cell proliferation). As to the method: as §1
The test system of another assay is MIAPaCa-2 (pancreas). The assay is described as follows: In vitro cytotoxic activity (MTT) assay, MIAPaCa-2. The conditions noted are these: Homo sapiens, MIA PaCa-2; MIAPaCa-2 (pancreas) cells, exposed for 96 hours; read-out: Cytotoxicity activity IC50 (50% inhibition of cell proliferation). The class given is cell-based. As to the method: as §1

Structures are written as SMILES.

T1 sequence (P68400 whole entry): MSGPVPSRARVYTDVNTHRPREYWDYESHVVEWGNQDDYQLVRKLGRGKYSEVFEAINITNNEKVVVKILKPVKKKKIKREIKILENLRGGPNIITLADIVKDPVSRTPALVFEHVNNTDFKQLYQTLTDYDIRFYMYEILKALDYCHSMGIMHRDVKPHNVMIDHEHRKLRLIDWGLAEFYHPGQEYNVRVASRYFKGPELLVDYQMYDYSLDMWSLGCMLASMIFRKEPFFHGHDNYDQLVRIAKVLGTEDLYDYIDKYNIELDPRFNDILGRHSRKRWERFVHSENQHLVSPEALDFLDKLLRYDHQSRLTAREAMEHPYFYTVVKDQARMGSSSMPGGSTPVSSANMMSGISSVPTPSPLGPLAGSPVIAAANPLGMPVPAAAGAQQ
T1 sequence (P67870 whole entry partner): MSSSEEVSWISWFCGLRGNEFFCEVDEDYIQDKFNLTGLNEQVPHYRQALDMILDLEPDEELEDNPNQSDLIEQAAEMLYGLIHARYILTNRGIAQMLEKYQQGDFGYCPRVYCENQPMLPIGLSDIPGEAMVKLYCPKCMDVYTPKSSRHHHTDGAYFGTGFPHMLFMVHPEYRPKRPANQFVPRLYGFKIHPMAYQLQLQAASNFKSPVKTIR

Regarding `O=C(O)c1cnn2c1nc(Nc1cccc(Cl)c1)c1ccncc12` [Compound 1, 5-((3-chlorophenyl)amino)pyrazolo[1,5-a]pyrido[4,3-e]pyrimidine-3-carboxylic acid], the IC50 in the assay on A375 (melanoma) was 4300 nM; in the assay on HCT116 (colon), 1900 nM; in the assay on MDA-MB-231 (breast), 4400 nM; in assay [1], 96 nM; with PC3 (prostate), 2100 nM; in the assay with MCF7 (breast), 5200 nM. Moreover, the results for the IC50 in the assay on HL60 (leukemia), with H1299 (lung) and in the assay with MIAPaCa-2 (pancreas) were 3900 nM, 1600 nM and 1100 nM, respectively.
